Experimental data reported in patent US11998556B2, “Methods of treating parkinson's disease and/or lewy body disease or disorder(s)” (Athira Pharma, Inc., priority 2021, dated 2024).
Square brackets hold non-standard residues; d marks the D form. Peptide text beside a SMILES is read from it. * marks the point of attachment. pY = N[CH](Cc1ccc(OP(=O)(O)O)cc1)C(=O)O; Hexanoyl = CCCCCC(=O)*; Ahx = NCCCCCC(=O)O

Experiments:
[1] = Clinical studies of ATH-1017: safety and tolerability of single and multiple SC administration; type: in vivo, human
[2] = Nonclinical studies (hepatotoxicity risk); type: in vivo
[3] = Conversion of prodrug ATH-1017 to active drug ATH-1001 in the plasma after SC injection; type: in vivo
Text: ATH-1017 is an experimental treatment for Lewy body disease or disorder(s) (LBD), including Parkinson's disease dementia (PDD) and/or dementia with Lewy bodies (DLB), formulated as a sterile solution for subcutaneous (SC) injection. […] ATH-1017 was developed as a water-soluble prodrug of ATH-1001 to allow SC dosing in aqueous vehicles. The active drug ATH-1001 acts as an agonist of the hepatocyte growth factor (HGF) receptor and its tyrosine kinase, MET in the brain. The HGF/MET system presents a new therapeutic target to treat neurodegeneration and restore cognitive, behavioral, functional and motor capacities in LBD such as PDD.

[4] = Phase 2 randomized, double-blind, placebo-controlled study in subjects with PDD inclusive of probable DLB; type: in vivo, human; conditions: 40 mg/day or 70 mg/day SC OD, 26 weeks
Protocol: The study is conducted at a total of approximately 15 centers in the USA and optionally Canada. Subjects and their caregivers are required to sign an informed consent form (ICF) and are evaluated against the inclusion/exclusion criteria during a screening period; all eligible subjects will have the option to be tested for glucocerebrosidase (GBA) genotype. Subjects who meet all inclusion/exclusion criteria will undergo baseline ERP P300 assessments at 2 separate baseline visits. At the first baseline assessment (Visit 2a, Pre-baseline, Day-10 to Day-3), ERP P300 is uploaded for quality check immediately after completion of the visit. […] At this Baseline visit (Visit 2b), subjects undergo pre-dose baseline and post-dose ERP P300. […] The first SC injection of study drug is performed on site under supervision. The subject should withhold study drug administration on the day of subsequent clinic visits; study drug administration is done on site under supervision of site staff at these visits. […] During the double-blind treatment period, clinic visits take place on Day 1 and thereafter at Weeks 2, 6, 12, 16, 20, and 26, with a safety follow-up visit scheduled 4 weeks after completion of the double-blind period at Week 30. On Day 1, after completion of the first dose, subjects remain on-site 2 hours for post-treatment clinical observation. […]

CCCCCC(=O)NC(Cc1ccc(OP(=O)(O)O)cc1)C(=O)NC(C(=O)NCCCCCC(N)=O)C(C)CC (stereo not shown) [ATH-1017] (Hexanoyl-[pY]-Ile-[Ahx]-NH2; configuration not given here)
safety and tolerability ([1]; 40 mg SC, OD, over 9 consecutive days, AD subjects): safe and well tolerated | injection site reactions (pain, pruritus, erythema): severity ([1]; SC injection, human clinical studies, resolved without specific therapy): mild in nature | hepatotoxicity ([1]; human studies): has not been observed | CNS-specific adverse events ([1]; humans, to date): no CNS-specific adverse events have been observed | safety and tolerability ([1]; multiple administration of 20, 40, 60 and 80 mg SC, OD, over 9 consecutive days, healthy elderly subjects): safe and well tolerated | safety and tolerability ([1]; single SC administration of 2, 6, 20, 40, 60 and 90 mg, healthy young subjects): safe and well tolerated | hepatotoxicity risk [2]: potential risk for hepatotoxicity identified | conversion of prodrug to active drug ATH-1001 [3]: rapidly converted | safety and tolerability [4]: acceptable safety and tolerability | primary, secondary or exploratory endpoints (GST, ADAS-Cog13, ERP P300 latency etc.) ([4]; versus placebo): achieves one or more of the primary, secondary, or exploratory endpoints
